Read-outs that look alike come from different tables or passages of the source.
Assays:
[1] = pH 6
Experimental: (§1) Absorbance was measured at pH 6, 8, and 10: acid (pH 6) gave two bands of similar absorbance; pH 10 gave a single λmax (base). The emission spectra were determined by excitation at the absorbance λmax (base). The wavelength where emission spectra crossed is reported as λiso. The emission λmax was measured at pH 10. pKa was determined from fluorescence emission spectra.
(§2) Fluorescence versus pH of various SNAFL free acids were compared using an Ocean Optics USB2000 fiber optic spectrometer and a tungsten halogen light source (part number HL-2000 FHSA). The light source was equipped with a linear variable filter that allowed the wavelength and shape of the excitation beam to be adjusted. […] A cuvette holder (part number CUV-FL-DA) was directly attached to the light source and a fiber optic cable directed emitted light to the spectrometer. Excitation conditions are reported for each fluorescence spectrum (3000 msec irradiation at the indicated wavelength). Spectral data were collected on a personal computer using the Ocean Optics software and overlays of different spectra were captured. […]
(§3) The pH at which two molecular species (tautomers) are equally represented is defined as the pKa. […] The intensity of fluorescence at the emission maxima is divided by 2, and pH of the intersecting pH curve is calculated by interpolation between the nearest 2 curves.

[2] = pKa determination from fluorescence emission spectra of SNAFL analogs; conditions: phosphate buffer, pH 6
Experimental: as §1, §2, §3

[3] = published / literature value; cited from earlier work

5′(and 6′)-carboxy-3,10-dihydroxy-spiro[7H-benzo[c]xanthene-7,1′(3′H)-isobenzofuran]-3′-one [SNAFL-1]
pKa [1]: 7.6

O=C(O)CCc1cc2c(-c3ccccc3C(=O)O)c3ccc4cc(O)c(Cl)cc4c3oc-2cc1=O [EBIO-3, 2-(2-chloro-3-hydroxy-9-carboxyethyl-10-oxo-10H-benzo[c]xanthen-7-yl)benzoic acid]
pKa [2]: 6.6

O=S1(=O)OC2(c3ccccc31)c1ccc3cc(O)ccc3c1Oc1c2ccc2cc(O)ccc12 [VITABLUE]
pKa [3]: 7.56

Reference: US9217170B2, “Fluorescent detector systems for the detection of chemical perturbations in sterile storage devices” (Blood Cell Storage, Inc., priority 2004, dated 2015)
